Experimental data taken from US9127044B2, “Cyclic depsipeptides” (NOVARTIS AG, priority 2007, dated 2015).
“And” between values parts separate entries of the source, which are not always exact repeats. Equal values may be shown once.

Experiments:
[1] = test system: Swine Model of Allergic Contact Dermatitis (ACD); assay: Anti-inflammatory activity in swine model of allergic contact dermatitis (ACD), DNFB; format: in vivo
Experimental: Eight days before the elicitation of the ACD, […] of 10% 2,4-dinitrofluorobenzene (DNFB, dissolved in DMSO/acetone/olive oil [1/5/3, v/v/v]) were applied epicutaneously in divided volumes onto the basis of both ears and onto both groins (100 μl/site) for sensitization. The challenge reactions were elicited with 15 μl of DNFB (1.0%) on contralateral test sites (each 7 cm^2 in size) of the shaved dorsolateral back. For treatment, the test compound and the placebo (solvent only) were applied contralaterally to 2 test sites in each animal 0.5 and 6 hrs after the challenge. The test sites were clinically examined 24 hrs after the challenge when inflammation peaked. The changes were scored on a scale from 0 to 4 (Table 15), allowing a combined maximal score of 12 per designated site. Skin reddening was measured reflectometrically using a* values.

[2] = target: T1, Human neutrophil elastase (Homo sapiens, UniProt P08246); assay: HNE inhibitory activity in vitro (fluorescence-quenched substrate); format: biochemical
T1 construct: purchased Elastin Products Company, Inc. (EPC, Owensville, USA) SE563
T1 sequence (P08246 30-267): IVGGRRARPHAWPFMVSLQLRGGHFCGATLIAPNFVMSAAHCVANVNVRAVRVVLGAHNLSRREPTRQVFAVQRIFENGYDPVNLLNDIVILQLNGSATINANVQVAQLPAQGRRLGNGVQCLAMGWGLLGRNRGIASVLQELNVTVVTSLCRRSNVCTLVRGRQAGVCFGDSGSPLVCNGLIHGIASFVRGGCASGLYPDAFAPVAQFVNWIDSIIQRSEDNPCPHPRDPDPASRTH

hairless SKH1 mice = assay: Test on recovery of skin barrier disruption in mice (TEWL); format: in vivo; conditions: 10 mM
Experimental: The procedure was completed when transepidermal water loss (TEWL) achieved ≧40 mg/cm^2/h. TEWL was assessed with a Tewameter TM210 (Courage Khazaka, Cologne, Del.). Immediately after barrier disruption 30 μl the test compound was applied at 10 mM concentration. Control animals were treated similarly with the solvent (ethanol/propylene glycol, 3/7 (v/v)) alone. TEWL was measured before, immediately after, and at 3 hrs after barrier disruption. In each animal, the percentage recovery was calculated using the formula: (1−[TEWL at 3 hrs−base line TEWL]/[TEWL immediately after stripping−base line TEWL])×100%.

Crl:NMRI mice = assay: Anti-inflammatory activity in murine model of allergic contact dermatitis (ACD), oxazolone; format: in vivo; conditions: for Δ Auricular weights Mean (SD): 10 μl topical 30 min after challenge, n: 8 animals per group; for % Inhibition of inflammatory swelling Mean ± SE: single topical application, p<0.001 vs solvent-treated animals
Experimental: Method: Crl:NMRI mice were sensitized on the shaved abdomen with 50 μl of 2% oxazolone on day 1 and challenged with 10 μl oxazolone on the inner surface of the right ear on day 8. The unchallenged left ears served as normal controls and dermatitis was evaluated from the difference in auricular weight (taken as a measure of inflammatory swelling) on day 9. The animals were treated topically with 10 μl test compound or the solvent only 30 min after the challenge. The efficacy of the treatment was calculated as the percentage inhibition of inflammatory auricular swelling relative to animals treated with the vehicle alone.

CCC(C)[C@@H]1NC(=O)[C@H](Cc2ccc(O)cc2)N(C)C(=O)[C@H](C(C)CC)N2C(=O)C(CC[C@@H]2O)NC(=O)[C@H](CC(C)C)NC(=O)[C@@H](NC(=O)[C@H](CCC(N)=O)NC(=O)C(C)C)[C@@H](C)OC1=O (stereo partly shown) [formula II]
A* value (Mean), skin reddening measured reflectometrically ([1]; 1% solution applied 0.5 and 6 hrs after challenge, 24 hrs, n: 8 test sites): 8.6 | Clinical score (Mean) ([1]; 1% solution applied 0.5 and 6 hrs after challenge, scored at 24 hrs, maximal score 12, n: 8 test sites): 5.1 | Inhibition vs placebo-treated sites, A* value ([1]; Table 16, 1% test compound): 27.0 | Inhibition vs placebo-treated sites, clinical score ([1]; Table 16, 1% test compound): 29.9 | inhibition of clinical inflammatory changes ([1]; treated twice with 1% solution, p<0.01): 30% | inhibition of measured skin redness ([1]; treated twice with 1% solution, p<0.05): 27% | IC50 [2]: 10 nM | % Recovery in barrier disruption Mean (SD values) (hairless SKH1 mice; 30 μl topical, TEWL at 3 hrs, n: 4 animals per group): 72.0 (9.1) % | acceleration of barrier repair compared to repair in mice treated with the solvent alone (hairless SKH1 mice; single topical application, 3 hrs after barrier disruption, p<0.05): 57% | Δ Auricular weights Mean (SD) (Crl:NMRI mice; 10 mM): 17.0 (4.8) | % Inhibition of inflammatory swelling Mean ± SE (Crl:NMRI mice; 10 mM): 40% and 40 ± 6.9% | Δ Auricular weights Mean (SD) (Crl:NMRI mice; 30 mM): 15.3 (5.4) | % Inhibition of inflammatory swelling Mean ± SE (Crl:NMRI mice; 30 mM): 46% and 46 ± 7.5%
